In patent US20210085807A1, “METAL-BINDING PEPTIDE AND USE THEREOF” (The University of Tokyo, priority 2018, published 2021):

Test: Adsorption on stent in plasma, fluorescence microscopy
Format: binding
Conditions: stent immersed in human plasma 37° C., 30 minutes, then 0.5 mM peptide or PEG-peptide conjugate solution 37° C.
Procedure: Next, in order to analyze the binding ability of the peptide of the present invention to a stent existing in plasma, whether or not the peptide of the present invention binds to a stent that has been allowed to come into contact with plasma was examined.
That is, a stent was immersed in human plasma (37° C., 30 minutes), and was then removed from the plasma. The stent was then immersed in each peptide solution (0.5 mM) and a PEG-peptide conjugate solution (0.5 mM) (37° C., 30 minutes). Thereafter, the stent was sufficiently rinsed with PBS, and was then observed under a fluorescence microscope.
FIG. 15 and FIG. 16 show the fluorescence microscopic images of the stents, and the observed fluorescence intensities are summarized in FIG. 17. The method of digitizing the fluorescence intensity is as described above.

Sequence: LTPHKHHKHLHA [YT07]
- binding to the surface of the stent after contact with human plasma: does not bind to a stent
